Reference: patent US20110045076A1, “LINEAR ORDER RELEASE POLYMER” (priority 2008, published 2011)

Experiments:
Assay type in all cases: physicochemical
[1] = Stability of dapivirine under extrusion conditions (heating with LC/MS and NMR, DSC, extraction)
Protocol: A series of experiments were conducted to confirm that dapivirine was stable in PU matrix in the extrusion process. First, the thermal stability of dapivirine at the extrusion temperature was examined and analyzed for its non-degradability as follows: dapivirine was heated at 185° C. isothermally for 2 h under air atmosphere and ^1H and ^13C NMR spectra were recorded (Mercury 400 MHz spectrometer, Varian) for the heated and unheated dapivirine. Furthermore, LC/MS analysis was performed on the heated sample and compared to non-heated controls. The MS instrumentation consisted of Micromass Quattro II Triple Quadruple Mass Spectrometer, Waters, Milford, Mass.
Second, a differential scanning calorimetric (DSC) scan was obtained on dapivirine from 25° C. to 230° C. at a heating rate of 10° C./min under air atmosphere with a flow rate of 40 mL/min (Model DSC821e, Mettler Toledo, Columbus, Ohio). To further confirm the stability of dapivirine in the presence of PU under extrusion conditions, DSC analyses were carried out for PU, dapivirine, and PU films loaded with dapivirine at a concentration of 200 mg/g. The high concentration of dapivirine was selected to enable detection of potential exothermic degradation peaks. The DSC spectrum was collected from 25° C. to 230° C. at the heating rate of 10° C./min as well as at an isothermal condition (175° C. for 10 minutes).
Finally, dapivirine was extracted and quantified from extruded rods and PU pellets (both SC and MM) prior to extrusion. The test samples (100 mg of ring segments or pellets) were dissolved in 2 mL of chloroform in a 50 mL centrifuge tube in triplicate followed by precipitation of the PU by addition of 25 mL of methanol using a volumetric flask. The polymer was separated by centrifugation (1600 RCF, 5 min) and the supernatant was quantified for dapivirine content by HPLC. The caps of the centrifuge tubes were closed tightly and wrapped with Teflon tape during the process to minimize evaporation. The efficiency of the extraction of dapivirine from the PU matrix using this method was determined by quantifying the extracted dapivirine content from controls of blank PU pellets (100 mg) to which known amount of dapivirine was added. The three controls used in triplicate were 1) 100 mg of PU pellets with 2 mg of dapivirine 2) 100 mg of PU pellets with 1 mg of dapivirine and 3) 100 mg of PU pellets with 0.25 mg of dapivirine. The mixtures of PU pellets and dapivirine were then subjected to the same precipitation process and dapivirine quantification as above. A linear calibration curve generated from standards of dapivirine in isopropanol (i-prOH) was utilized for quantification of dapivirine content from extracted samples.

[2] = In vitro release of dapivirine from PU-SC rods in 25:75 i-prOH:water
Protocol: The release profile of dapivirine was measured from PU-SC rods for a month after which the release kinetics from rings was evaluated for two weeks to determine the correlation of drug release rate from rods to that from rings. This may enable use of rods in place of rings for release kinetics evaluation thereby minimizing the scale of materials such as ring materials, quantity of drugs and volume of sink solutions required for release studies in case of monolithic IVRs. About 2 cm length segments were cut from the solid cross-sectional dapivirine loaded PU SC rods. The dimensions (length and diameter) and weight of each segment were recorded. […] HPLC analyses were performed every 2 to 5 days and the cumulative release was calculated by integrating the area under the curve using Kaleidagraph software (Synergy Software, Reading, Pa.). […] At the end of 30 days, the segments were wiped dry and the masses and dimensions of the segments were recorded. Similarly, dapivirine release kinetics were measured from rings (20 mg/g SC, 2.5 mg/g SC, 20 mg/g MM and 2.5 mg/g MM) incubated with 50 mL of 25:75 v/v i-prOH:water mixture as sink condition in 125 mL Erlenmeyer flasks with rubber septa […].
At the end of each release study, the swelling ratio was calculated by using the following equation […]

[3] = In vitro release of dapivirine from PU rods into liposome dispersions; settings: 5 mg/g PU rods
Protocol: It is believed that vaginally delivered lipophilic NNRTI's partition into the lipid bilayer of vaginal epithelial cells.^14,21 Therefore, additional release studies were performed using 100 nm liposome dispersions in pH 4.2 and pH 7.6 buffers as biorelevant sink conditions for 1 week. These pH conditions cover the pH range observed vaginally. Liposome dispersions were synthesized by dissolving egg PC in CHCl3 followed by solvent removal under vacuum. The dried egg PC cake was dispersed in either pH 4.2 (25 mM acetate buffer containing 0.02% sodium azide and osmolarity adjusted to 310 mOsm/kg with NaCl) or pH 7.6 (25 mM phosphate buffer containing 0.02% sodium azide and osmolarity adjusted to 310 mOsm/kg with NaCl) followed by extrusion through a 100 nm membrane (LiposoFast™, Avestin, Ottawa, Canada). The concentration of liposome was 10 mg/mL. Prior to conducting the release study, liposome dispersions were characterized for particle size and zeta potential in a Zetasizer (nano ZS90, Malvern Instruments, Malvern Worcestershire, UK). A third sink condition for comparison was 25:75 v/v i-prOH:water. Approximately 0.5 mm length segments of dapivirine loaded (5 mg/g) PU rods were incubated with 0.5 mL of sink solution in 37° C. water bath shaking at 64±2 rpm. Controls used were dapivirine loaded PU rods suspended with pH 4.2 and pH 7.6 buffers without liposomes and blank PU (no dapivirine) segments in liposome dispersions in pH 4.2 and pH 7.6 buffers. Sinks were replaced and quantified for dapivirine content at frequent time points. HPLC quantification of release in sink samples of liposome dispersions was performed after 1:1 dilution with i-prOH to disrupt the dispersion.

With `Cc1cc(C)c(Nc2ccnc(Nc3ccc(C#N)cc3)n2)c(C)c1` [dapivirine, 4-[[4-[(2,4,6-trimethylphenyl)amino]pyrimidin-2-yl]amino]benzonitrile] the “degradation in DSC thermogram of dapivirine” value ([1]; 25° C. to 230° C., 10° C./min, air) was “no detectable degradation”, the “degradation of dapivirine (LC/MS and NMR, heated vs non-heated)” value ([1]; 185° C. isothermally for 2 h under air) was “no detectable degradation” and the “degradation of dapivirine in PU under extrusion conditions (DSC)” value ([1]; PU films loaded with 200 mg/g, ramp 25 to 230° C. and isothermal 175° C., extrusion 165 to 175° C.) was “no detectable degradation”. For the same molecule, the “dapivirine content recovered from extruded rods vs SC or MM pellets prior to extrusion” value ([1]; extraction, HPLC, p value>0.05, unpaired t-test) was “not significantly different”, the “solubility of dapivirine in PU matrix” value ([1]; from absence of the 220° C. melting endotherm in DSC of PU films loaded at 200 mg/g) was over 200 mg/g and the “release kinetics (order)” value ([2]; all loadings (2.5-20 mg/g), 25:75 i-prOH:water, 37° C., one month) was “zero order release kinetics”. For the same molecule, the loaded dapivirine released ([2]; at the end of 30 days) was “about 20%”, the “cumulative release over time” value ([3]; liposome dispersions, one week) was “linear relationship with time” and the “dapivirine release in buffer controls” value ([3]; pH 4.2 and pH 7.6 buffers without liposomes) was “below the detection limit”. For the same molecule, the “release kinetics relative to 25:75 i-prOH:water sink (slopes of linear fits)” value ([3]; pH 4.2 liposome dispersion) was 22 times and the “release kinetics relative to 25:75 i-prOH:water sink (slopes of linear fits)” value ([3]; pH 7.6 liposome dispersion) was 1.5 times.
